# Source: the supplement of paper PMC11414989
# What was measured:
# Conditions in all cases: exposure window: 6 hpf to 120 hpf, static, assay age: 120 hpf (5 dpf)
# [1] = test system: Danio rerio larvae (Tropical 5D); experiment: mean distance moved of exposed larvae, dark phase (µm per frame (1/25 s)); higher = more movement
# Method: (§1)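 Larval photomotor response in Tropical 5D wild-type zebrafish. Larvae were statically exposed to each chemical from 6 hpf to 5 dpf in 96-well plates; morphologically abnormal larvae were excluded. At 120 hpf, larvae were tracked with Ethovision XT (25 frames/s) over the 2nd cycle of 3 min light and 3 min dark. Values are the mean movement metric of exposed larvae per phase; same-plate control means (plate-dependent baseline) are given as conditions.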
# [2] = test system: Danio rerio larvae (Tropical 5D); experiment: mean distance moved of exposed larvae, light phase (µm per frame (1/25 s)); higher = more movement
# Method: as §1
# [3] = test system: Danio rerio larvae (Tropical 5D); experiment: mean angular velocity of exposed larvae, dark phase (angular velocity (unit not stated)); higher = more movement
# Method: as §1
# [4] = test system: Danio rerio larvae (Tropical 5D); experiment: mean angular velocity of exposed larvae, light phase (angular velocity (unit not stated)); higher = more movement
# Method: as §1
smiles,measurement,setting,value
CC[C@H](C)[C@H]1O[C@]2(C=C[C@@H]1C)C[C@@H]1C[C@@H](C/C=C(\C)[C@@H](O[C@H]3C[C@H](OC)[C@@H](O[C@H]4C[C@H](OC)[C@@H](O)[C@H](C)O4)[C@H](C)O3)[C@@H](C)/C=C/C=C3\CO[C@@H]4[C@H](O)C(C)=C[C@@H](C(=O)O1)[C@]34O)O2.CO[C@H]1C[C@H](O[C@H]2[C@H](C)O[C@@H](O[C@@H]3/C(C)=C/C[C@@H]4C[C@@H](C[C@]5(C=C[C@H](C)[C@@H](C(C)C)O5)O4)OC(=O)[C@@H]4C=C(C)[C@@H](O)[C@H]5OC/C(=C\C=C\[C@@H]3C)[C@]54O)C[C@@H]2OC)O[C@@H](C)[C@@H]1O [Abamectin],mean distance moved of exposed larvae,[1]; 0.1 µM,11.5
same,mean distance moved of exposed larvae,[1]; 0.2 µM,14.8
same,mean distance moved of exposed larvae,[1]; 0.4 µM,7.04
same,mean distance moved of exposed larvae,[1]; 0.5 µM,3.9
same,mean distance moved of exposed larvae,[1]; 0.6 µM,2.89
same,mean distance moved of exposed larvae,[1]; 0.8 µM,3.08
same,mean distance moved of exposed larvae,[2]; 0.1 µM,2.76
same,mean distance moved of exposed larvae,[2]; 0.2 µM,5.62
same,mean distance moved of exposed larvae,[2]; 0.4 µM,2.25
same,mean distance moved of exposed larvae,[2]; 0.5 µM,2.39
same,mean distance moved of exposed larvae,[2]; 0.6 µM,1.04
same,mean distance moved of exposed larvae,[2]; 0.8 µM,0.0237
same,mean angular velocity of exposed larvae,[3]; 0.1 µM,0.434
same,mean angular velocity of exposed larvae,[3]; 0.2 µM,0.554
same,mean angular velocity of exposed larvae,[3]; 0.4 µM,0.283
same,mean angular velocity of exposed larvae,[3]; 0.5 µM,0.124
same,mean angular velocity of exposed larvae,[3]; 0.6 µM,0.0798
same,mean angular velocity of exposed larvae,[3]; 0.8 µM,0.0985
same,mean angular velocity of exposed larvae,[4]; 0.1 µM,0.111
same,mean angular velocity of exposed larvae,[4]; 0.2 µM,0.19
same,mean angular velocity of exposed larvae,[4]; 0.4 µM,0.173
same,mean angular velocity of exposed larvae,[4]; 0.5 µM,0.0668
same,mean angular velocity of exposed larvae,[4]; 0.6 µM,0.0447
same,mean angular velocity of exposed larvae,[4]; 0.8 µM,0.00094
CN1C(=O)CN=C(c2ccccc2)c2cc(Cl)ccc21 [Diazepam],mean distance moved of exposed larvae,[1]; 1 µM,22.5
same,mean distance moved of exposed larvae,[1]; 3 µM,22.7
same,mean distance moved of exposed larvae,[1]; 5 µM,21.5
same,mean distance moved of exposed larvae,[1]; 8 µM,17.3
same,mean distance moved of exposed larvae,[1]; 12 µM,17
same,mean distance moved of exposed larvae,[2]; 1 µM,10.9
same,mean distance moved of exposed larvae,[2]; 3 µM,7.88
same,mean distance moved of exposed larvae,[2]; 5 µM,7.53
same,mean distance moved of exposed larvae,[2]; 8 µM,10
same,mean distance moved of exposed larvae,[2]; 12 µM,11
same,mean angular velocity of exposed larvae,[3]; 1 µM,1.05
same,mean angular velocity of exposed larvae,[3]; 3 µM,1.06
same,mean angular velocity of exposed larvae,[3]; 5 µM,1.17
same,mean angular velocity of exposed larvae,[3]; 8 µM,0.786
same,mean angular velocity of exposed larvae,[3]; 12 µM,0.733
same,mean angular velocity of exposed larvae,[4]; 1 µM,0.379
same,mean angular velocity of exposed larvae,[4]; 3 µM,0.422
same,mean angular velocity of exposed larvae,[4]; 5 µM,0.41
same,mean angular velocity of exposed larvae,[4]; 8 µM,0.389
same,mean angular velocity of exposed larvae,[4]; 12 µM,0.456
c1ccc2c(c1)c1cccc3c4ccccc4c4cccc2c4c13 [Dibenzo[e-l]pyrene],mean distance moved of exposed larvae,[1]; 0.01 µM,23.6
same,mean distance moved of exposed larvae,[1]; 0.025 µM,22.4
same,mean distance moved of exposed larvae,[1]; 0.065 µM,24.7
same,mean distance moved of exposed larvae,[1]; 0.164 µM,22.8
same,mean distance moved of exposed larvae,[1]; 0.35 µM,25.3
same,mean distance moved of exposed larvae,[1]; 0.75 µM,26.3
same,mean distance moved of exposed larvae,[1]; 1 µM,13.5
same,mean distance moved of exposed larvae,[1]; 2.54 µM,10.8
same,mean distance moved of exposed larvae,[1]; 6.45 µM,9.33
same,mean distance moved of exposed larvae,[1]; 16.4 µM,8.16
same,mean distance moved of exposed larvae,[1]; 35 µM,12
same,mean distance moved of exposed larvae,[1]; 74.8 µM,9.85
same,mean distance moved of exposed larvae,[1]; 100 µM,9.64
same,mean distance moved of exposed larvae,[2]; 0.01 µM,7.75
same,mean distance moved of exposed larvae,[2]; 0.025 µM,6.96
same,mean distance moved of exposed larvae,[2]; 0.065 µM,6.48
same,mean distance moved of exposed larvae,[2]; 0.164 µM,8.06
same,mean distance moved of exposed larvae,[2]; 0.35 µM,7.37
same,mean distance moved of exposed larvae,[2]; 0.75 µM,6.8
same,mean distance moved of exposed larvae,[2]; 1 µM,4.47
same,mean distance moved of exposed larvae,[2]; 2.54 µM,2.56
same,mean distance moved of exposed larvae,[2]; 6.45 µM,1.7
same,mean distance moved of exposed larvae,[2]; 16.4 µM,1.99
same,mean distance moved of exposed larvae,[2]; 35 µM,1.66
same,mean distance moved of exposed larvae,[2]; 74.8 µM,1.63
same,mean distance moved of exposed larvae,[2]; 100 µM,3.03
same,mean angular velocity of exposed larvae,[3]; 0.01 µM,0.665
same,mean angular velocity of exposed larvae,[3]; 0.025 µM,0.598
same,mean angular velocity of exposed larvae,[3]; 0.065 µM,0.644
same,mean angular velocity of exposed larvae,[3]; 0.164 µM,0.681
same,mean angular velocity of exposed larvae,[3]; 0.35 µM,0.693
same,mean angular velocity of exposed larvae,[3]; 0.75 µM,0.704
same,mean angular velocity of exposed larvae,[3]; 1 µM,0.415
same,mean angular velocity of exposed larvae,[3]; 2.54 µM,0.428
same,mean angular velocity of exposed larvae,[3]; 6.45 µM,0.349
same,mean angular velocity of exposed larvae,[3]; 16.4 µM,0.245
same,mean angular velocity of exposed larvae,[3]; 35 µM,0.503
same,mean angular velocity of exposed larvae,[3]; 74.8 µM,0.384
same,mean angular velocity of exposed larvae,[3]; 100 µM,0.353
same,mean angular velocity of exposed larvae,[4]; 0.01 µM,0.217
same,mean angular velocity of exposed larvae,[4]; 0.025 µM,0.129
same,mean angular velocity of exposed larvae,[4]; 0.065 µM,0.194
same,mean angular velocity of exposed larvae,[4]; 0.164 µM,0.187
same,mean angular velocity of exposed larvae,[4]; 0.35 µM,0.147
same,mean angular velocity of exposed larvae,[4]; 0.75 µM,0.138
same,mean angular velocity of exposed larvae,[4]; 1 µM,0.119
same,mean angular velocity of exposed larvae,[4]; 2.54 µM,0.113
same,mean angular velocity of exposed larvae,[4]; 6.45 µM,0.0734
same,mean angular velocity of exposed larvae,[4]; 16.4 µM,0.0678
same,mean angular velocity of exposed larvae,[4]; 35 µM,0.0716
same,mean angular velocity of exposed larvae,[4]; 74.8 µM,0.0555
same,mean angular velocity of exposed larvae,[4]; 100 µM,0.0996
CCN(CC(=O)O)S(=O)(=O)C(F)(F)C(F)(F)C(F)(F)C(F)(F)C(F)(F)C(F)(F)C(F)(F)C(F)(F)F [N-ethylperfluoro-1-octanesulfonamidoacetic acid],mean distance moved of exposed larvae,[1]; 0.25 µM,8.83
same,mean distance moved of exposed larvae,[2]; 0.25 µM,1.44
same,mean angular velocity of exposed larvae,[3]; 0.25 µM,0.335
same,mean angular velocity of exposed larvae,[4]; 0.25 µM,0.0592
CN(CC(=O)O)S(=O)(=O)C(F)(F)C(F)(F)C(F)(F)C(F)(F)C(F)(F)C(F)(F)C(F)(F)C(F)(F)F [N-methylperfluoro-1-octanesulfonamidoacetic acid],mean distance moved of exposed larvae,[1]; 0.25 µM,6.38
same,mean distance moved of exposed larvae,[2]; 0.25 µM,1.43
same,mean angular velocity of exposed larvae,[3]; 0.25 µM,0.256
same,mean angular velocity of exposed larvae,[4]; 0.25 µM,0.0567
NC(=O)C(F)(F)C(F)(F)C(F)(F)C(F)(F)F [Nonafluoropentanamide],mean distance moved of exposed larvae,[1]; 0.015 µM,25.4
same,mean distance moved of exposed larvae,[1]; 0.046 µM,26.1
same,mean distance moved of exposed larvae,[1]; 0.14 µM,19.4
same,mean distance moved of exposed larvae,[1]; 0.41 µM,25.8
same,mean distance moved of exposed larvae,[1]; 1.23 µM,17.3
same,mean distance moved of exposed larvae,[1]; 3.7 µM,12.1
same,mean distance moved of exposed larvae,[1]; 11.1 µM,23.9
same,mean distance moved of exposed larvae,[1]; 33.3 µM,26.5
same,mean distance moved of exposed larvae,[1]; 66.5 µM,18.1
same,mean distance moved of exposed larvae,[1]; 100 µM,19.5
same,mean distance moved of exposed larvae,[2]; 0.015 µM,2.24
same,mean distance moved of exposed larvae,[2]; 0.046 µM,4.1
same,mean distance moved of exposed larvae,[2]; 0.14 µM,3.32
same,mean distance moved of exposed larvae,[2]; 0.41 µM,2.83
same,mean distance moved of exposed larvae,[2]; 1.23 µM,1.91
same,mean distance moved of exposed larvae,[2]; 3.7 µM,2.44
same,mean distance moved of exposed larvae,[2]; 11.1 µM,3.86
same,mean distance moved of exposed larvae,[2]; 33.3 µM,2.5
same,mean distance moved of exposed larvae,[2]; 66.5 µM,2.36
same,mean distance moved of exposed larvae,[2]; 100 µM,2.76
same,mean angular velocity of exposed larvae,[3]; 0.015 µM,0.911
same,mean angular velocity of exposed larvae,[3]; 0.046 µM,1.03
same,mean angular velocity of exposed larvae,[3]; 0.14 µM,0.788
same,mean angular velocity of exposed larvae,[3]; 0.41 µM,0.731
same,mean angular velocity of exposed larvae,[3]; 1.23 µM,0.649
same,mean angular velocity of exposed larvae,[3]; 3.7 µM,0.476
same,mean angular velocity of exposed larvae,[3]; 11.1 µM,0.903
same,mean angular velocity of exposed larvae,[3]; 33.3 µM,0.989
same,mean angular velocity of exposed larvae,[3]; 66.5 µM,0.804
same,mean angular velocity of exposed larvae,[3]; 100 µM,0.714
same,mean angular velocity of exposed larvae,[4]; 0.015 µM,0.107
same,mean angular velocity of exposed larvae,[4]; 0.046 µM,0.153
same,mean angular velocity of exposed larvae,[4]; 0.14 µM,0.163
same,mean angular velocity of exposed larvae,[4]; 0.41 µM,0.0614
same,mean angular velocity of exposed larvae,[4]; 1.23 µM,0.124
same,mean angular velocity of exposed larvae,[4]; 3.7 µM,0.0715
same,mean angular velocity of exposed larvae,[4]; 11.1 µM,0.078
same,mean angular velocity of exposed larvae,[4]; 33.3 µM,0.103
same,mean angular velocity of exposed larvae,[4]; 66.5 µM,0.0723
same,mean angular velocity of exposed larvae,[4]; 100 µM,0.107
O=C(O)C(F)(F)C(F)(F)C(F)(F)C(F)(F)C(F)(F)C(F)(F)C(F)(F)C(F)(F)C(F)(F)C(F)(F)C(F)(F)C(F)(F)C(F)(F)C(F)(F)C(F)(F)F [Perfluoro-n-hexadecanoic acid],mean distance moved of exposed larvae,[1]; 0.25 µM,27.2
same,mean distance moved of exposed larvae,[2]; 0.25 µM,6.65
same,mean angular velocity of exposed larvae,[3]; 0.25 µM,0.833
same,mean angular velocity of exposed larvae,[4]; 0.25 µM,0.178
